These results are taken from patent publication US20180044329A1, “3-SUBSTITUTED-1,2,4-OXADIAZOLE AND THIADIAZOLE COMPOUNDS AS IMMUNOMODULATORS” (AURIGENE DISCOVERY TECHNOLOGIES LIMITED, priority 2015, published 2018).

Structures are written as SMILES.

This experiment relates to Recombinant mouse PD-L1. The experiment in a line: Rescue of mouse splenocyte proliferation in the presence of recombinant PD-L1 (CFSE proliferation assay). It is filed as cell-based. The settings on record: compound at 100 nM; anti-CD3/CD28 stimulated mouse splenocytes + PD-L1; 72 h; stimulated splenocyte proliferation normalised as 100%; read-out: Percent rescue of splenocyte proliferation (@100 nM). How it is done: Rescue of Mouse Splenocyte Proliferation in the Presence of Recombinant PD-L1
Recombinant mouse PD-L1 (rm-PDL-1, cat no: 1019-B7-100; R&D Systems) were used as the source of PD-L1.
Mouse splenocytes harvested from 6-8 weeks old C57 BL6 mice; RPMI 1640 (GIBCO, Cat #11875); DMEM with high glucose (GIBCO, Cat #D6429); Fetal Bovine Serum [Hyclone, Cat #SH30071.03]; Penicillin (10000 unit/mL)-Streptomycin (10,000 μg/mL) Liquid (GIBCO, Cat #15140-122); MEM Sodium Pyruvate solution 100 mM (100×), Liquid (GIBCO, Cat #11360); Nonessential amino acid (GIBCO, Cat #11140); L-Glutamine (GIBCO, Cat #25030); Anti-CD3 antibody (eBiosciences—16-0032); Anti-CD28 antibody (eBiosciences—16-0281); ACK lysis buffer (1 mL) (GIBCO, Cat #-A10492); Histopaque (density-1.083 gm/mL) (SIGMA 10831); Trypan blue solution (SIGMA-T8154); 2 mL Norm Ject Luer Lock syringe-(Sigma 2014-12); 40 μm nylon cell strainer (BD FALCON 35230); Hemacytometer (Bright line-SIGMA Z359629); FACS Buffer (PBS/0.1% BSA): Phosphate Buffered Saline (PBS) pH 7.2 (Hi-Media TS1006) with 0.1% Bovine Serum Albumin (BSA) (SIGMA A7050) and sodium azide (SIGMA 08591); 5 mM stock solution of CFSE: CFSE stock solution was prepared by diluting lyophilized CFSE with 180 μL of Dimethyl sulfoxide (DMSO C2H6SO, SIGMA-D-5879) and aliquoted in to tubes for further use. Working concentrations were titrated from 10 μM to 1 μM. (eBioscience-650850-85); 0.05% Trypsin and 0.02% EDTA (SIGMA 59417C); 96-well format ELISA plates (Corning CLS3390); BD FACS caliber (E6016); Recombinant mouse B7-H1/PDL1 Fc Chimera, (rm-PD-L1 cat no: 1019-B7-100).
Splenocytes harvested in a 50 mL falcon tube by mashing mouse spleen in a 40 μm cell strainer were further treated with 1 mL ACK lysis buffer for 5 min at room temperature. After washing with 9 mL of RPMI complete media, cells were re-suspended in 3 mL of 1× PBS in a 15 mL tube. 3 mL of Histopaque was added carefully to the bottom of the tube without disturbing overlaying splenocyte suspension. After centrifuging at 800×g for 20 min at room temperature, the opaque layer of splenocytes was collected carefully without disturbing/mixing the layers. Splenocytes were washed twice with cold 1× PBS followed by total cell counting using Trypan Blue exclusion method and used further for cell based assays.
Splenocytes were cultured in RPMI complete media (RPMI+10% fetal bovine serum+1 mM sodium pyruvate+10,000 units/mL penicillin and 10,000 μg/mL streptomycin) and maintained in a CO2 incubator with 5% CO2 at 37° C.
CFSE is a dye that passively diffuses into cells and binds to intracellular proteins. 1×10^6 cells/mL of harvested splenocytes were treated with 5 μM of CFSE in pre-warmed 1× PBS/0.1% BSA solution for 10 min at 37° C. Excess CFSE was quenched using 5 volumes of ice-cold culture media to the cells and incubated on ice for 5 min CFSE labelled splenocytes were further given three washes with ice cold complete RPMI media. CFSE labelled 1×10^5 splenocytes added to wells containing either MDA-MB231 cells (1×10^5 cells cultured in high glucose DMEM medium) or recombinant human PDL-1 (100 ng/mL) and compounds of the present invention. Splenocytes were stimulated with anti-mouse CD3 and anti-mouse CD28 antibody (1 μg/mL each) and the culture was further incubated for 72 h at 37° C. with 5% CO2. Cells were harvested and washed thrice with ice cold FACS buffer and % proliferation was analysed by flow cytometry with 488 nm excitation and 521 nm emission filters.
Percent splenocyte proliferation was analysed using cell quest FACS program and percent rescue of splenocyte proliferation by compound was estimated after deduction of % background proliferation value and normalising to % stimulated splenocyte proliferation (positive control) as 100%. […]

As to `CC(O)[C@H](NC(=O)N[C@@H](CC(N)=O)c1nc(N2CCNCC2)no1)C(=O)O` (stereo partly shown) [Compound 16], the activity at 0.1 µM amounted to 79%.
Consider `CC(O)[C@H](NC(=O)N[C@@H](CC(N)=O)c1nc(-c2cc(F)ccc2F)no1)C(=O)O` (stereo partly shown) [Compound 25], for which the activity at 0.1 µM was determined as 42%.
Take `CC(O)[C@H](NC(=O)N[C@@H](CC(N)=O)c1nc(C2(N)CCCC2)no1)C(=O)O` (stereo partly shown) [Compound 48]: the activity at 0.1 µM is 47%.
As for `CC(O)[C@H](NC(=O)N[C@@H](CC(N)=O)c1nc(N2CCC[C@H](O)C2)no1)C(=O)O` (stereo partly shown) [Compound 27], the activity at 0.1 µM came to 6%.
With `CC(O)[C@H](NC(=O)N[C@@H](CC(N)=O)c1nc([C@@H]2COCCN2)no1)C(=O)O` (stereo partly shown) [Compound 43] the figure was 92%; with `CC(O)[C@H](NC(=O)N[C@@H](CC(N)=O)c1nc([C@@H]2CCCCN2)no1)C(=O)O` (stereo partly shown) [Compound 44], 84%.
As for `Cc1ccc(-c2noc([C@H](CC(N)=O)NC(=O)N[C@H](C(=O)O)C(C)O)n2)o1` (stereo partly shown) [Compound 26], the activity at 0.1 µM worked out at 24%.
As for `C#CC[C@H](NC(=O)N[C@H](C(=O)O)C(C)O)c1nc(-c2cnccn2)no1` (stereo partly shown) [Compound 32], the figure is 92%; as for `CC(O)[C@H](NC(=O)N[C@@H](CC(N)=O)c1nc(-c2ccc(-c3ccccc3)cc2)no1)C(=O)O` (stereo partly shown) [Compound 40], 79%.
For the molecule `CC(O)[C@H](NC(=O)N[C@@H](CC(N)=O)c1nc(C2(N)CCCCC2)no1)C(=O)O` (stereo partly shown) [Compound 49], the activity at 0.1 µM was 16%.
As for `O=C(O)CNC(=O)N[C@@H](CC(=O)O)c1nc(N2CCCC2)no1` [Compound 30], the figure is 7%.
As to `CC(O)[C@H](NC(=O)N[C@@H](CC(=O)O)c1nc(-c2cnccn2)no1)C(=O)O` (stereo partly shown) [Compound 41], the activity at 0.1 µM worked out at 73%.
With `CC(O)[C@H](NC(=O)N[C@@H](CC(N)=O)c1nc(-c2ccccn2)no1)C(=O)O` (stereo partly shown) [Compound 20] the figure was 27%; with `CC(O)[C@H](NC(=O)N[C@@H](CC(N)=O)c1nc([C@@H]2C[C@@H](O)CN2)no1)C(=O)O` (stereo partly shown) [Compound 51], 44%; with `CC(O)[C@H](NC(=O)N[C@@H](CC(N)=O)c1nc(-c2cccc(F)c2)no1)C(=O)O` (stereo partly shown) [Compound 24], 50%.
As for `CC(O)[C@H](NC(=O)N[C@@H](CCC(=O)O)c1nc(N2CCCC2)no1)C(=O)O` (stereo partly shown) [Compound 39], the figure is 39%.
In the case of `CC(O)[C@H](NC(=O)N[C@@H](CC(N)=O)c1nc(C2CCCCC2)no1)C(=O)O` (stereo partly shown) [Compound 46], the activity at 0.1 µM is 52%.
As for `NCCCC[C@H](NC(=O)N[C@@H](CC(N)=O)c1nc([C@H]2CCCCN2)no1)C(=O)O` [Compound 34], the figure is 78%; as for `C[C@H](NC(=O)N[C@@H](CCCCN)c1nc([C@@H]2CCCN2)no1)C(=O)O` [Compound 52], 46%; as for `CC(O)[C@H](NC(=O)N[C@@H](CC(N)=O)c1nc(-c2cnccn2)no1)C(=O)O` (stereo partly shown) [Compound 21], 39%.
With `CC(O)[C@H](NC(=O)N[C@@H](CCC(=O)O)c1nc([C@@H]2COCCN2)no1)C(=O)O` (stereo partly shown) [Compound 47] the figure was 57%; with `COc1ccnc(-c2noc([C@H](CC(N)=O)NC(=O)N[C@H](C(=O)O)C(C)O)n2)c1` (stereo partly shown) [Compound 23], 27%.
As for `CC(O)[C@H](NC(=O)N[C@@H](CC(N)=O)c1nc([C@@H]2CNCCN2)no1)C(=O)O` (stereo partly shown) [Compound 45], the figure is 49%.
`CC(O)[C@H](NC(=O)N[C@@H](CC(N)=O)c1nc(-c2cc(Cl)ccn2)no1)C(=O)O` (stereo partly shown) [Compound 22]: the activity at 0.1 µM came to 39%.
With `CC(O)[C@H](NC(=O)N[C@@H](CCC(=O)O)c1nc(-c2cc(F)ccc2F)no1)C(=O)O` (stereo partly shown) [Compound 37], the activity at 0.1 µM amounted to 74%.
For the molecule `CC(O)[C@H](NC(=O)N[C@@H](CC(=O)O)c1nc(N2CCCC2)no1)C(=O)O` (stereo partly shown) [Compound 38], the activity at 0.1 µM was found to be 27%.
For `CC(O)[C@H](NC(=O)N[C@@H](CC(N)=O)c1nc(N2CCCCC2)no1)C(=O)O` (stereo partly shown) [Compound 15], the activity at 0.1 µM was 54%.
As to `CC(O)[C@H](NC(=O)N[C@@H](Cc1cn(-c2ccccc2C(=O)O)nn1)c1nc(-c2cnccn2)no1)C(=O)O` (stereo partly shown) [Compound 31], the activity at 0.1 µM amounted to 67%.
